# Tested on: human whole blood
# Assay: Imaging flow cytometry of platelet-leukocyte aggregates in whole blood
# Type: cell-based
# Details: pre-incubation with physiological levels of xylitol, TRAP6 7.5 μM
# Protocol: Imaging flow cytometry was performed on an Amnis ImageStreamX MK II two-camera system using anti-CD45 AF488, anti-CD41 AF647 and anti-CD62P-PE. Details and the gating strategy are described in supplemental methods.
# Whole blood collected from consented healthy volunteers was incubated with xylitol (30 or 100 μM) or vehicle for 30 min. Where indicated, the samples were then stimulated with 7.5 μM TRAP6 for 10 min. Blood samples were then incubated with anti-CD45 AF488 (Catalogue #FAB1430G, R&D Systems, MN, USA), anti-CD41 AF647 (Catalogue #303726, Biolegend, San Diego, CA, USA) and anti-CD62P-PE (Catalogue #555524, BD PharMingen, San Diego, CA, USA) for 20 min at room temperature in the dark. After gentle red blood cell lysis using VersaLyse Lysing solution (Catalogue #A09777, Beckman Coulter, Brea, California, USA), cells were gently spun down and resuspended in HBSS-BSA. Platelet leucocyte aggregates were measured on an Amnis ImageStreanX MK II two-camera system (Luminex, Austin, TX, USA). Data were analyzed using Amnis IDEAS software (Luminex, Austin, TX, USA).
# IDEAS analysis was performed as follows. Gating out of focus events using Gradient RMS in the brightfield image. Gating on CD45+ events using the Intensity and Max Pixel features. Elimination of false positive CD45 events and selection of only true CD45+ cells using Intensity vs. Area of CD45+. […]
structure (smiles),measurement,value
OC[C@@H](O)[C@H](O)[C@@H](O)CO [xylitol],TRAP6 stimulated platelet-leukocyte aggregates,dose-dependent increase
